The test system of test [1] is SDH-KO-HRAS cells (SDHB-deficient). The test is described as follows: Cellular / differential toxicity assay (CellTiter-Glo, 3 days). It is filed as cell-based, murine. Conditions: Mus musculus, 72 h, toxicity, SDH-KO cells, 3 days, CellTiter-Glo; read-out: EC50 (uM) SDH-KO-HTAS-C17. As for the experimental part: (§1) Identification of compounds that target specifically SDH-deficient cells was done by screening a library of small-molecule by using a differential toxicity screen with SDHB-proficient vs. SDHB-deficient cells (the […] cells were described in Cardaci 2015).
(§2) Cells Used for the Differential Assays: SDH-WT; SDH-KO-HRAS
(§3) Cell Culture Conditions: • Medium: DMEM-F12 medium+1 mM Glutamine+3% FBS • Plates: 96 well plate—Black, clear flat bottom • Incubation time: 3 days • Compound concentration: 10 point dilution starting from 10 uM to 0.0065 uM or a lower range when needed. • Viability assay at the end of incubation: Celltiter-Glo (CTG) from Promega.
(§4) Protocol: • Day 1: Plate cells in 96 well plate together with the appropriate concentration of compound.
(§5) Incubate for 3 days at 37° C. in 5% CO2 tissue culture incubator. • Day 4: Check viability of cells by adding CTG reagent and read luminescence in plate reader
(§6) SDH-WT and SDH-KO cells were grown in DMEM F12 supplemented with 1 mM Glutamine+3% FBS were treated with different concentrations of the indicated compounds in FIG. 11. Cell viability was determined 72 hours later by CellTiter Glue reagent (Promega), the luminescence was measured with ClarioStar reader (BMG) and the EC50s were calculated by Prism.
(§7) SDH-WT and SDH-KO cells were grown in DMEM F12 supplemented with 1 mM Glutamine+3% FBS were treated with different concentrations of the indicated compounds. Cell viability was determined 72 hours later by CellTiter Glue reagent (Promega), the luminescence was measured with ClarioStar reader (BMG) and the EC50s were calculated by Prism.
(§8) The cells were grown in DMEM F12 supplemented with 1 mM Glutamine+3% FBS were treated with different concentrations of the indicated compounds. Cell viability was determined 72 hours later by CellTiter Glue reagent (Promega), the luminescence was measured with ClarioStar reader (BMG) and the EC50s were calculated by Prism. Murine SDHB-WT/KO, HRAS transformed isogenic pair (FIG. 12A); UOK269, Human Tumor-derived SDHB-deficient RCC in their WT counterpart with re-expression of SDHB (FIG. 12B); and ACHN, RCC cells, and their SDHB-KO (SDHB CRISPRed out) isogenic cells (FIG. 12C).

Test [2] deals with SDH-WT cells. Described as above. Conditions: Mus musculus, 72 h, toxicity, SDH-WT cells, 3 days, CellTiter-Glo; read-out: EC50 (uM) SDH-WT. It is filed as cell-based, murine. As for the experimental part:
as §1, §2, §3, §4, §5, §6, §7, §8
Background: ATP-based viability assays read luminescence as a measure of living cells.

In general, EC50 refers to the concentration giving half of the maximal effect. As to `CC1(C)Cc2nc3sc4c(NCCc5ccc(-c6ncco6)cc5)ncnc4c3cc2CO1` [Compound 147], the results for the EC50 in test [1] and in test [2] were less than 1 µM and 3 to 10 µM, respectively.

With `CC1(C)Cc2nc3sc4c(NCCc5ccc(-c6cncs6)cc5)ncnc4c3cc2CO1` [Compound 148], the EC50 in test [1] was less than 1 µM; in test [2], more than 10 µM.

As for `CC1(C)Cc2nc3sc4c(NCCc5ccc(-c6cnco6)cc5)ncnc4c3cc2CO1` [Compound 149], the EC50 in test [1] and in test [2] was more than 10 µM in each case.

Consider `CN(C)C(=O)c1ccc(CCNc2ncnc3c2sc2nc4c(cc23)COC(C)(C)C4)cc1` [Compound 150], for which the figures for the EC50 in test [1] and in test [2] were 1 to 3 µM and more than 10 µM, respectively.

Regarding `CC1(C)Cc2nc3sc4c(NCCc5ccc(N)cc5)ncnc4c3cc2CO1` [Compound 151], the concentration for a half-maximal effect (EC50) in test [1] is less than 1 µM; in test [2], 3 to 10 µM.

Consider `CC1(C)Cc2nc3sc4c(NCCc5ccc(NS(C)(=O)=O)cc5)ncnc4c3cc2CO1` [Compound 152], for which the concentration for a half-maximal effect (EC50) in test [1] and in test [2] was 3 to 10 µM each time.

As for `COc1ccc(CCOc2ncnc3c2sc2nc4c(cc23)COC(C)(C)C4)cc1F` [Compound 153], the EC50 in test [1] and in test [2] was more than 10 µM in each case.

Regarding `CC1(C)Cc2nc3sc4c(NCCc5ccc(O)cc5)ncnc4c3cc2CO1` [Compound 154], the EC50 in test [1] was less than 1 µM; in test [2], 3 to 10 µM.

`CC1(C)Cc2nc3sc4c(NCCc5ccc(N6CCCC6=O)cc5)ncnc4c3cc2CO1` [Compound 156]: the EC50 in test [1] is 1 to 3 µM; in test [2], more than 10 µM.

Turning to `CC1(C)Cc2nc3sc4c(NCCc5ccc(OS(C)(=O)=O)cc5)ncnc4c3cc2CO1` [Compound 157], the EC50 in test [1] and in test [2] was more than 10 µM each time.

On to `CC(=O)N(C)c1ccc(CCNc2ncnc3c2sc2nc4c(cc23)COC(C)(C)C4)cc1` [Compound 158], for which the EC50 in test [1] was less than 1 µM; in test [2], more than 10 µM.

As to `CC1(C)Cc2nc3sc4c(NCCc5ccc(C(=O)O)cc5)ncnc4c3cc2CO1` [Compound 159], the EC50 in test [1] and in test [2] was more than 10 µM throughout.

Consider `COc1ccc(CCN(C(C)=O)c2ncnc3c2sc2nc4c(cc23)COC(C)(C)C4)cc1F` [Compound 160], for which the EC50 in test [1] and in test [2] was more than 10 µM each time.

Turning to `COc1ccc(CCNc2ncnc3c2sc2nc4c(cc23)COC(C)(C)C4)cc1C(F)(F)F` [Compound 161], the EC50 in test [1] and in test [2] was 3 to 10 µM throughout.

Regarding `COc1cccc(OC)c1CCNc1ncnc2c1sc1nc3c(cc12)COC(C)(C)C3` [Compound 162], the EC50 in test [1] and in test [2] was less than 1 µM in each case.

With `COCCOCCOCCOCCOCCOC(=O)c1c2c(nc3sc4c(NCCc5ccc6[nH]cnc6c5)ncnc4c13)CC(C)(C)OC2` [Compound 163], the EC50 in test [1] was 1 to 3 µM; in test [2] it was more than 10 µM.

With `COCCOCCOCCOCCOC(=O)c1c2c(nc3sc4c(NCCc5ccc6[nH]cnc6c5)ncnc4c13)CC(C)(C)OC2` [Compound 164], the figures for the EC50 in test [1] and in test [2] were less than 1 µM and 3 to 10 µM, respectively.

In the case of `COCCOCCOCCOC(=O)c1c2c(nc3sc4c(NCCc5ccc6[nH]cnc6c5)ncnc4c13)CC(C)(C)OC2` [Compound 165, 2-(2-(2-Methoxyethoxy)ethoxy)ethyl 4-((2-(1H-benzo[d]imidazol-6-yl)ethyl)amino)-8,8-dimethyl-8,10-dihydro-7H-pyrano[3″,4″:5′,6′]pyrido[3′,2′:4,5]thieno[3,2-d]pyrimidine-11-carboxylate], the EC50 is 1 to 3 µM in test [1] and more than 10 µM in test [2].

`CC1(C)Cc2nc3c(c(S(C)(=O)=O)c2CO1)-c1ncnc(NCCc2ccc4[nH]cnc4c2)c1S3(=O)=O` [Compound 166]: the EC50 in test [1] and in test [2] was 3 to 10 µM in each case.

With `CSc1c2c(nc3sc4c(NCCc5ccc6nc[nH]c6c5)ncnc4c13)CC(C)(C)OC2` [Compound 167], the EC50 in test [1] and in test [2] was less than 1 µM in each case.

With `CC(=O)OC1CCc2nc3sc4c(NCCc5ccc6[nH]cnc6c5)ncnc4c3cc2C1` (stereo not shown) [Compound 168], the EC50 was less than 1 µM in test [1] and 1 to 3 µM in test [2].

For `OC1CCc2nc3sc4c(NCCc5ccc6[nH]cnc6c5)ncnc4c3cc2C1` (stereo not shown) [Compound 169], the 50% effective concentration (EC50) in test [1] was less than 1 µM; in test [2] it was 1 to 3 µM.

As for `CCOC(=O)c1c2c(nc3sc4c(NCCc5ccc6[nH]cnc6c5)ncnc4c13)CC(C)(C)OC2` [Compound 170, Ethyl 4-((2-(1H-benzo[d]imidazol-5-yl)ethyl)amino)-8,8-dimethyl-8,10-dihydro-7H-pyrano[3″,4″:5′,6′]pyrido[3′,2′:4,5]thieno[3,2-d]pyrimidine-11-carboxylate], the EC50 in test [1] and in test [2] was less than 1 µM in each case.

As for `CC1(C)Cc2nc3sc4c(NCCc5ccc6[nH]cnc6c5)ncnc4c3c(C(=O)O)c2CO1` [Compound 171, 4-((2-(1H-Benzo[d]imidazol-6-yl)ethyl)amino)-8,8-dimethyl-8,10-dihydro-7H-pyrano[3″,4″:5′,6′]pyrido[3′,2′:4,5]thieno[3,2-d]pyrimidine-11-carboxylic Acid], the EC50 in test [1] and in test [2] was 3 to 10 µM each time.

Take `CC(CNc1ncnc2c1sc1nc3c(cc12)COC(C)(C)C3)c1ccc2c(c1)ncn2C` (stereo not shown) [Compound 172]: the EC50 in test [1] and in test [2] was 3 to 10 µM each time.

Regarding `Cn1cnc2cc(CCNc3ncnc4c3sc3nc5c(cc34)COC(C)(C)C5)ccc21` [Compound 173], the figures for the EC50 in test [1] and in test [2] were less than 1 µM and 3 to 10 µM, respectively.

For `CC1(C)Cc2nc3sc4c(NCCc5ccc(O)c([N+](=O)[O-])c5)ncnc4c3cc2CO1` [Compound 174], the EC50 in test [1] is 3 to 10 µM; in test [2], less than 1 µM.

As to `CC1(C)Cc2nc3sc4c(NCCc5ccc6ocnc6c5)ncnc4c3cc2CO1` [Compound 175], the values for the EC50 in test [1] and in test [2] were 1 to 3 µM and 3 to 10 µM, respectively.

As to `CC(=O)OCc1nc2cc(CCNc3ncnc4c3sc3nc5c(cc34)COC(C)(C)C5)ccc2[nH]1` [Compound 176], the results for the EC50 in test [1] and in test [2] were less than 1 µM and 3 to 10 µM, respectively.

For `CC(O)c1nc2cc(CCNc3ncnc4c3sc3nc5c(cc34)COC(C)(C)C5)ccc2[nH]1` (stereo not shown) [Compound 177], the EC50 in test [1] is 1 to 3 µM; in test [2], 3 to 10 µM.

As to `CC(=O)c1nc2cc(CCNc3ncnc4c3sc3nc5c(cc34)COC(C)(C)C5)ccc2[nH]1` [Compound 178], the EC50 is less than 1 µM in test [1] and 3 to 10 µM in test [2].

Regarding `CC1(C)Cc2nc3sc4c(NCCc5ccc6[nH]c(CO)nc6c5)ncnc4c3cc2CO1` [Compound 179], the EC50 is less than 1 µM in test [1] and 3 to 10 µM in test [2].

For `CNc1ccc(CCNc2ncnc3c2sc2nc4c(cc23)COC(C)(C)C4)cc1[N+](=O)[O-]` [Compound 180], the EC50 is less than 1 µM in test [1] and 3 to 10 µM in test [2].

`CNc1ccc(CCN(C)c2ncnc3c2sc2nc4c(cc23)COC(C)(C)C4)cc1[N+](=O)[O-]` [Compound 181]: the EC50 in test [1] and in test [2] was 3 to 10 µM throughout.

For `CC1(C)Cc2nc3sc4c(NCCc5ccc(NC(=O)C(F)(F)F)c([N+](=O)[O-])c5)ncnc4c3cc2CO1` [Compound 182], the 50% effective concentration (EC50) in test [1] lay in the range of 1 to 3 µM; in test [2], 3 to 10 µM.

As to `CC(=O)OCC(=O)Cc1ccc(CCNc2ncnc3c2sc2nc4c(cc23)COC(C)(C)C4)cc1N` [Compound 183], the EC50 in test [1] is less than 1 µM; in test [2], 3 to 10 µM.

As for `CC(=O)OCC(=O)Cc1ccc(CCNc2ncnc3c2sc2nc4c(cc23)COC(C)(C)C4)cc1[N+](=O)[O-]` [Compound 184], the EC50 in test [1] and in test [2] was 3 to 10 µM throughout.

As to `CC(=O)OC(C)c1nc2cc(CCNc3ncnc4c3sc3nc5c(cc34)COC(C)(C)C5)ccc2[nH]1` (stereo not shown) [Compound 185], the EC50 lay within 1 to 3 µM in test [1] and 3 to 10 µM in test [2].

As for `CC(=O)OC(C)C(=O)Nc1ccc(CCNc2ncnc3c2sc2nc4c(cc23)COC(C)(C)C4)cc1N` (stereo not shown) [Compound 186], the EC50 in test [1] was in the range of 1 to 3 µM; in test [2], 3 to 10 µM.

With `CC(=O)OC(C)C(=O)Nc1ccc(CCNc2ncnc3c2sc2nc4c(cc23)COC(C)(C)C4)cc1[N+](=O)[O-]` (stereo not shown) [Compound 187], the half-maximal effective concentration (EC50) in test [1] lay in the range of 3 to 10 µM; in test [2], 1 to 3 µM.

`CC(C)c1nc2cc(CCNc3ncnc4c3sc3nc5c(cc34)COC(C)(C)C5)ccc2[nH]1` [Compound 188]: the EC50 in test [1] was in the range of 3 to 10 µM; in test [2] it was 1 to 3 µM.

These data come from patent US20230084927A1, “GLUCOSE UPTAKE INHIBITORS AND USES THEREOF” (METABOMED LTD., priority 2019, published 2023).
